Patent US20030055103A1, “Utilization of achyrocline satureoides ("Marcela") extracts and liposomal preparations of natural and semi-synthetic flavonoids for the prevention and treatment of the consequences of stroke and neurodegenerative diseases” (priority 2001, published 2003)
“Also recorded” adds a separate entry of the source. Like-named read-outs stand apart in the source and are kept apart here. Peptide text beside a SMILES is read from it.

Key:
PC12 cells = test: PC12 cell survival after H2O2 oxidative insult (MTT reduction); format: cell-based; conditions: 200 μM H2O2 30 min, result in words
Protocol: PC12 cells (Greene and Tischler 1976, Shafer and Atchison 1991) were grown in RPMI supplemented with 10% heat-inactivated horse serum (HSI), 5% fetal bovine serum (FBS), penicillin and streptomycin on a collagen matrix. Typically, cells were sow (1:4 in a total volume of 10 ml complete medium) in 100×20 mm cell culture dishes and grown at 37° C. in at atmosphere of 5% CO2 for a week. Media was changed twice a week. Cultures were not used in more than 25 passages.
Cells were plated at a low density (100 cells/μl) in 200 μl of complete medium on 96-well cell culture plates on a poli-D-lysine matrix to do all the experiments except the comet assay. To do the latter, 100×20mm-cell culture dishes were adequate. All the experiments were started 24 hrs after the sow.
Cells were exposed to H2O2 200 μM during half an hour (medium was changed to stop the treatment) and all the evaluations were fulfilled 2 hrs later.
This assay measures the reduction of 3-(4,5-dimethyl-thiazol-2-yl)-2,5-diphenil tetrazolium bromide (MTT) (yellowish) to formazan (blue) by mitochondrial dehydrogenases of the living cells. The fresh complete medium added after the treatment was supplemented with MTT (0.5 mg/ml ). Following an incubation period of 2 hrs, it was removed and half-its volume of dimethylsulfoxide (DMSO) was added to achieve solubilization. Absorption values were read immediately at 570-640 nm (Denizot and Lang 1986). […]

[1] = system: spontaneous lipoperoxidation of rat's brain membranes; test: Spontaneous lipoperoxidation of rat brain membranes (malondialdehyde production); format: biochemical; conditions: for antioxidant potency / capacity: anti-lipoperoxidation assay (test not given)
male Sprague-Dawley rats = test: Permanent focal MCA occlusion, TTC morphometry and histology; format: in vivo, rat; conditions: result in words
[2] = Acute toxicity (species not given); conditions: intraperitoneal or oral, doses up to 300 mg/kg
[3] = Quercetin concentration in rat blood after intraperitoneal administration; format: in vivo
From the text: FIG. 17. A graph of Quercetin concentration in rat blood at different periods after intraperitoneal administration.

[4] = system: rats injected with 6-OHDA in the SN; test: 6-OHDA lesion of the Substantia Nigra (experimental parkinsonism), striatal dopamine; format: in vivo, rat; conditions: given intraperitoneally before 6-OHDA, assessed eight days after, result in words
[5] = inhibition of spontaneous lipoperoxidation, rat brain membranes, read-out: IC50

Compound	protection / cell survival after H2O2 insult (PC12 cells)	IC50 [1, 5]	neuroprotection: dopamine level in ipsilateral striatum [4]	further results
Cc1c(C)c2c(c(C)c1O)CC[C@@](C)(CCC[C@H](C)CCC[C@H](C)CCCC(C)C)O2 [vitamin E, alpha-tocopherol]	only marcela extracts, quercetin or structurally similar flavonoids protected PC12 cells			protection / cell survival after H2O2 insult (PC12 cells; listed as alpha-tocopherol): did not increased survival
CC[C@H](C)[C@H](NC(=O)[C@H](CCC(=O)O)NC(=O)[C@@H](NC(C)=O)C(C)C)C(=O)N[C@H](C=O)CC(=O)O [VEID, acetyl-L-valyl-L-glutamyl-L-isoleucyl-L-aspart-1-al] (Ac-VEID-aldehyde)	block H2O2-induced cell death			
Oc1cc(O)c2c(c1)OC(c1ccc(O)c(O)c1)C(O)C2 (stereo not drawn) [Catequin]		28.3 µM		
CC(=O)N[C@@H](CC(C)C)C(=O)N[C@@H](CCC(=O)O)C(=O)N[C@@H](Cc1c[nH]cn1)C(=O)N[C@H](C=O)CC(=O)O [LEHD, acetyl-L-leucyl-L-glutamyl-L-histidyl-L-aspart-1-al] (Ac-LEHD-aldehyde)	block H2O2-induced cell death			
O=c1c(O)c(-c2ccc(O)c(O)c2)oc2cc(O)cc(O)c12 [Quercetin]	protected PC12 cells; also recorded: protects PC12 cells against H2O2; also recorded: Neuroprotectan effect	3.7 µM	did not show neuroprotection activity	ischemic lesion area (male Sprague-Dawley rats; liposomal quercetin 30 mg/kg i.p. 30 min after ischemia, TTC at 24 hrs): clearly decreased the lesion area; also recorded: marked and significant decrease of the ischemic area; also recorded: recovery of the ischemic areas is clear cut; number of neurons in Nissl stained slices (male Sprague-Dawley rats; striatum and cortex, 24 hrs after occlusion): higher than ischemic rats and non different from controls; adverse effects in acute toxicity experiments [2]: did not show any adverse effects; time quercetin is detected in blood [3]: up to two; malondialdehyde production during spontaneous lipoperoxidation ([1]; result in words): decreased malondialdehyde production; antioxidant potency / capacity ([1]; result in words): potent antioxidants; IC50 ([1]; spontaneous lipoperoxidation, marcela expressed in quercetin equivalents): 1.11 µg/mL; neuroprotection: dopamine level in ipsilateral striatum ([4]; listed as quercetin): did not revert in vivo the oxidative lesion; also recorded: appear not to have neuroprotectant effects in vivo
CN1CCCC1c1cccnc1 (stereo not drawn) [Nicotine]			reverted dopamine levels in the ipsilateral striatum	antioxidant potency / capacity ([1]; result in words): negligible
O=c1c(O)c(-c2cc(O)c(O)c(O)c2)oc2cc(O)cc(O)c12 [myricetin]	did show neuroprotectant capacity			
Cc1c(C)c2c(c(C)c1O)CCC(C)(C(=O)O)O2 (stereo not drawn) [trolox]	only marcela extracts, quercetin or structurally similar flavonoids protected PC12 cells			
O=c1c(O)c(-c2ccc(O)c(O)c2)oc2cc(O)ccc12 [fisetin]	did show neuroprotectant capacity			
COc1ccc2[nH]cc(CCNC(C)=O)c2c1 [Melatonine]	did not increased survival	1400 µM	weaker in its neuroprotection	
O=C(O)/C=C/c1ccc(O)c(O)c1 [Caffeic acid]		48.6 µM		
COc1cc2c(cc1O)C[C@H]1c3c(cc(O)c(OC)c3-2)CCN1C [Boldine]	only marcela extracts, quercetin or structurally similar flavonoids protected PC12 cells; also recorded: did not increased survival	12.8 µM	did not revert in vivo the oxidative lesion; also recorded: did not show neuroprotection activity	antioxidant potency / capacity ([1]; result in words): highest antioxidant potency
Cn1cnc(N)c2ncnc1-2 [3-MT, 3-methyladenine]	block H2O2-induced cell death			
